Measured values reported in US20240415914A1, “Water Dispersible Cannabinoid Compositions” (priority 2021, published 2024).

Assay: Stability of cannabinoid and Vitamin E components of Beverage 1 (AB White) stored at 8° C. and 21-25° C., LCMSMS over 570 days
Assay type: physicochemical
Details: for Stability in AB White, 8° C. (content by LCMSMS): beverage stored at 8° C.; for Stability in AB White, 21-25° C. (content by LCMSMS): beverage stored at 21-25° C.
Procedure: The LCMSMS was calibrated for 0-1000 ng/ml cannabinoids with the same resin material used in the preparation of the concentrates. At each time period, 100 ml of beverage was diluted with 10 ml of methanol and injected into the LCMSMS for analysis.

CCCCCc1cc(O)c2c(c1)OC(C)(C)c1ccc(C)cc1-2 [CBN, cannabinol]
Stability in AB White, 8° C. (content by LCMSMS) (day 0): 2.79 µg/mL | Stability in AB White, 8° C. (content by LCMSMS) (day 1): 2.77 µg/mL | Stability in AB White, 8° C. (content by LCMSMS) (day 2): 2.72 µg/mL | Stability in AB White, 8° C. (content by LCMSMS) (day 3): 2.73 µg/mL | Stability in AB White, 8° C. (content by LCMSMS) (day 5): 2.76 µg/mL | Stability in AB White, 8° C. (content by LCMSMS) (day 8): 2.75 µg/mL | Stability in AB White, 8° C. (content by LCMSMS) (day 9): 2.76 µg/mL | Stability in AB White, 8° C. (content by LCMSMS) (day 10): 2.79 µg/mL | Stability in AB White, 8° C. (content by LCMSMS) (day 11): 2.71 µg/mL | Stability in AB White, 8° C. (content by LCMSMS) (day 12): 2.80 µg/mL | Stability in AB White, 8° C. (content by LCMSMS) (day 15): 2.79 µg/mL | Stability in AB White, 8° C. (content by LCMSMS) (day 16): 2.77 µg/mL | Stability in AB White, 8° C. (content by LCMSMS) (day 17): 2.82 µg/mL | Stability in AB White, 8° C. (content by LCMSMS) (day 18): 2.71 µg/mL | Stability in AB White, 8° C. (content by LCMSMS) (day 19): 2.71 µg/mL | Stability in AB White, 8° C. (content by LCMSMS) (day 22): 2.76 µg/mL | Stability in AB White, 8° C. (content by LCMSMS) (day 23): 2.71 µg/mL | Stability in AB White, 8° C. (content by LCMSMS) (day 24): 2.75 µg/mL | Stability in AB White, 8° C. (content by LCMSMS) (day 25): 2.75 µg/mL | Stability in AB White, 8° C. (content by LCMSMS) (day 26): 2.76 µg/mL | Stability in AB White, 8° C. (content by LCMSMS) (day 29): 2.76 µg/mL | Stability in AB White, 8° C. (content by LCMSMS) (day 30): 2.78 µg/mL | Stability in AB White, 8° C. (content by LCMSMS) (day 60): 2.68 µg/mL | Stability in AB White, 8° C. (content by LCMSMS) (day 90): 2.74 µg/mL | Stability in AB White, 8° C. (content by LCMSMS) (day 120): 2.72 µg/mL | Stability in AB White, 8° C. (content by LCMSMS) (day 150): 2.69 µg/mL | Stability in AB White, 8° C. (content by LCMSMS) (day 180): 2.77 µg/mL | Stability in AB White, 8° C. (content by LCMSMS) (day 210): 2.75 µg/mL | Stability in AB White, 8° C. (content by LCMSMS) (day 240): 2.70 µg/mL | Stability in AB White, 8° C. (content by LCMSMS) (day 270): 2.75 µg/mL | Stability in AB White, 8° C. (content by LCMSMS) (day 300): 2.71 µg/mL | Stability in AB White, 8° C. (content by LCMSMS) (day 330): 2.75 µg/mL | Stability in AB White, 8° C. (content by LCMSMS) (day 360): 2.68 µg/mL | Stability in AB White, 8° C. (content by LCMSMS) (day 390): 2.67 µg/mL | Stability in AB White, 8° C. (content by LCMSMS) (day 420): 2.70 µg/mL | Stability in AB White, 8° C. (content by LCMSMS) (day 450): 2.70 µg/mL | Stability in AB White, 8° C. (content by LCMSMS) (day 480): 2.66 µg/mL | Stability in AB White, 8° C. (content by LCMSMS) (day 510): 2.60 µg/mL | Stability in AB White, 8° C. (content by LCMSMS) (day 540): 2.56 µg/mL | Stability in AB White, 8° C. (content by LCMSMS) (day 570): 2.56 µg/mL | Stability in AB White, 21-25° C. (content by LCMSMS) (day 0): 2.79 µg/mL | Stability in AB White, 21-25° C. (content by LCMSMS) (day 1): 2.79 µg/mL | Stability in AB White, 21-25° C. (content by LCMSMS) (day 2): 2.81 µg/mL | Stability in AB White, 21-25° C. (content by LCMSMS) (day 3): 2.73 µg/mL | Stability in AB White, 21-25° C. (content by LCMSMS) (day 5): 2.80 µg/mL | Stability in AB White, 21-25° C. (content by LCMSMS) (day 8): 2.71 µg/mL | Stability in AB White, 21-25° C. (content by LCMSMS) (day 9): 2.78 µg/mL | Stability in AB White, 21-25° C. (content by LCMSMS) (day 10): 2.77 µg/mL | Stability in AB White, 21-25° C. (content by LCMSMS) (day 11): 2.80 µg/mL | Stability in AB White, 21-25° C. (content by LCMSMS) (day 12): 2.75 µg/mL | Stability in AB White, 21-25° C. (content by LCMSMS) (day 15): 2.81 µg/mL | Stability in AB White, 21-25° C. (content by LCMSMS) (day 16): 2.75 µg/mL | Stability in AB White, 21-25° C. (content by LCMSMS) (day 17): 2.70 µg/mL | Stability in AB White, 21-25° C. (content by LCMSMS) (day 18): 2.78 µg/mL | Stability in AB White, 21-25° C. (content by LCMSMS) (day 19): 2.73 µg/mL | Stability in AB White, 21-25° C. (content by LCMSMS) (day 22): 2.69 µg/mL | Stability in AB White, 21-25° C. (content by LCMSMS) (day 23): 2.68 µg/mL | Stability in AB White, 21-25° C. (content by LCMSMS) (day 24): 2.79 µg/mL | Stability in AB White, 21-25° C. (content by LCMSMS) (day 25): 2.75 µg/mL | Stability in AB White, 21-25° C. (content by LCMSMS) (day 26): 2.69 µg/mL | Stability in AB White, 21-25° C. (content by LCMSMS) (day 29): 2.75 µg/mL | Stability in AB White, 21-25° C. (content by LCMSMS) (day 30): 2.72 µg/mL | Stability in AB White, 21-25° C. (content by LCMSMS) (day 60): 2.63 µg/mL | Stability in AB White, 21-25° C. (content by LCMSMS) (day 90): 2.66 µg/mL | Stability in AB White, 21-25° C. (content by LCMSMS) (day 120): 2.67 µg/mL | Stability in AB White, 21-25° C. (content by LCMSMS) (day 150): 2.77 µg/mL | Stability in AB White, 21-25° C. (content by LCMSMS) (day 180): 2.68 µg/mL | Stability in AB White, 21-25° C. (content by LCMSMS) (day 210): 2.74 µg/mL | Stability in AB White, 21-25° C. (content by LCMSMS) (day 240): 2.71 µg/mL | Stability in AB White, 21-25° C. (content by LCMSMS) (day 270): 2.67 µg/mL | Stability in AB White, 21-25° C. (content by LCMSMS) (day 300): 2.73 µg/mL | Stability in AB White, 21-25° C. (content by LCMSMS) (day 330): 2.75 µg/mL | Stability in AB White, 21-25° C. (content by LCMSMS) (day 360): 2.67 µg/mL | Stability in AB White, 21-25° C. (content by LCMSMS) (day 390): 2.66 µg/mL | Stability in AB White, 21-25° C. (content by LCMSMS) (day 420): 2.62 µg/mL | Stability in AB White, 21-25° C. (content by LCMSMS) (day 450): 2.61 µg/mL | Stability in AB White, 21-25° C. (content by LCMSMS) (day 480): 2.57 µg/mL | Stability in AB White, 21-25° C. (content by LCMSMS) (day 510): 2.66 µg/mL | Stability in AB White, 21-25° C. (content by LCMSMS) (day 540): 2.63 µg/mL | Stability in AB White, 21-25° C. (content by LCMSMS) (day 570): 2.56 µg/mL
